What was measured:
[1] = target: T1, RORγ-LBD (Homo sapiens, UniProt P51449); assay: RORγ-Ligand Binding Domain (LBD) TR-FRET Assay; format: biochemical;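 as to TR-FRET Assay Max Response: 665/615 nm ratio relative to signal without ursolic acid or compound set at 100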
T1 construct: made in house; host or cells: SF9 cells (baculovirus)
T1 sequence (P51449 269-508 limits assumed): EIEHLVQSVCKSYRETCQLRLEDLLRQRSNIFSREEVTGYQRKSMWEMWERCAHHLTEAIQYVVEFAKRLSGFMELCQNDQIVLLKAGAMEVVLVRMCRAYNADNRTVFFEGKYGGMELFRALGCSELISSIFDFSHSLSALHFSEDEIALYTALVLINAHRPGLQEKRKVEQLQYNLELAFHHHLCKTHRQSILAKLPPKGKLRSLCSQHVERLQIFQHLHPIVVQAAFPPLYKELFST
Summary of the method: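 Lysate from SF9 cells expressing His-RORγ-LBD is diluted to about 3 nM final in 50 mM Tris pH 7.0 assay buffer. A biotin-tagged SRC1 LXXLL peptide goes in at 200 nM final, plus ursolic acid at 2 μM final. Test compounds carry 1% DMSO final; signal read by TR-FRET.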

[2] = target: T2, Gal4-RORγ-LBD (Homo sapiens, UniProt P51449); assay: Gal4-RORγ Luciferase Reporter Assay in HEK-293T Cells; format: cell-based; details: HEK-293 cells, 2 μM ursolic acid
T2 construct: expressed in transfected cells; host or cells: HEK-293 cells (pcDNA3.1neo plasmid)
T2 sequence (P51449 269-508 limits assumed): T1 sequence (P51449 269-508 limits assumed)
Summary of the method: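 In transfected HEK-293 cells (Gal4-RORγ-LBD, Gal4-luciferase), test agents with 2 μM ursolic acid were incubated overnight at 37 °C before luminescent detection. Values are relative to the ursolic-acid-free, compound-free signal (100).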

SMILES | EC50 [1] [nM] | TR-FRET Assay Max Response [1] | EC50 [2] [nM] | Gal4-RORγ Assay Max Response [2]
Cc1cc(C)cc(-c2ccc3c(c2)N(S(=O)(=O)c2cccc(C(F)(F)F)c2)C[C@H](CC2(C(=O)O)CCOCC2)O3)c1 [Compound 78G, (S)-4-((6-(3,5-dimethylphenyl)-4-((3-(trifluoromethyl)phenyl)-sulfonyl)-3,4-dihydro-2H-benzo[b][1,4]oxazin-2-yl)methyl)tetrahydro-2H-pyran-4-carboxylic acid] | < 500 | ** (The symbol “**” indicates a value in the range of greater than 90 to 150) | < 500 | ** (The symbol “**” indicates a value in the range of greater than 90 to 150)
O=C(O)C1(C[C@H]2CN(S(=O)(=O)c3cccc(C(F)(F)F)c3)c3cc(-c4cccc(C(F)(F)F)c4)ccc3O2)CCOCC1 [Compound 78H, (S)-4-((6-(3-(trifluoromethyl)-phenyl)-4-((3-(trifluoromethyl)-phenyl)sulfonyl)-3,4-dihydro-2H-benzo[b][1,4]oxazin-2-yl)methyl)tetrahydro-2H-pyran-4-carboxylic acid] | < 500 | ** (The symbol “**” indicates a value in the range of greater than 90 to 150) | < 500 | * (The symbol “*” indicates a value in the range of 25 to 90)
C[C@H](CC(=O)O)[C@H]1CN(S(=O)(=O)c2cccc(C(F)(F)F)c2)c2cc(-c3cc(F)cc(F)c3Cl)ccc2O1 [Compound 80B, (R)-3-((S)-6-(2-chloro-3,5-difluorophenyl)-4-((3-(trifluoromethyl)phenyl)sulfonyl)-3,4-dihydro-2H-benzo[b][1,4]-oxazin-2-yl)butanoic acid] | < 500 | ** (The symbol “**” indicates a value in the range of greater than 90 to 150) | 500 to 5000 | ** (The symbol “**” indicates a value in the range of greater than 90 to 150)
C[C@@H](CC(=O)O)[C@H]1CN(S(=O)(=O)c2cccc(C(F)(F)F)c2)c2cc(-c3cc(F)cc(F)c3Cl)ccc2O1 [Compound 80C, (S)-3-((S)-6-(2-chloro-3,5-difluorophenyl)-4-((3-(trifluoromethyl)phenyl)sulfonyl)-3,4-dihydro-2H-benzo[b][1,4]-oxazin-2-yl)butanoic acid] | < 500 | *** (The symbol “***” indicates a value in the range of greater than 150 to 200) | < 500 | ** (The symbol “**” indicates a value in the range of greater than 90 to 150)
CC(=O)N[C@H]1C[C@@](C[C@H]2CN(S(=O)(=O)c3cccc(C(F)(F)F)c3)c3cc(-c4cc(F)cc(OC(F)F)c4)ccc3O2)(C(=O)O)C1 [Compound 84, (1s,3R)-3-acetamido-1-(((S)-6-(3-(difluoromethoxy)-5-fluorophenyl)-4-((3-(trifluoromethyl)phenyl)sulfonyl)-3,4-dihydro-2H-benzo[b][1,4]oxazin-2-yl)methyl)cyclobutane-1-carboxylic acid] | < 500 | ** (The symbol “**” indicates a value in the range of greater than 90 to 150) | 500 to 5000 | * (The symbol “*” indicates a value in the range of 25 to 90)
CC(=O)N[C@H]1C[C@](C[C@H]2CN(S(=O)(=O)c3cccc(C(F)(F)F)c3)c3cc(-c4cc(F)cc(OC(F)F)c4)ccc3O2)(C(=O)O)C1 [Compound 85, (1r,3S)-3-acetamido-1-(((S)-6-(3-(difluoromethoxy)-5-fluorophenyl)-4-((3-(trifluoromethyl)phenyl)sulfonyl)-3,4-dihydro-2H-benzo[b][1,4]oxazin-2-yl)methyl)cyclobutane-1-carboxylic Acid] | < 500 | ** (The symbol “**” indicates a value in the range of greater than 90 to 150) | < 500 | ** (The symbol “**” indicates a value in the range of greater than 90 to 150)
CC(=O)N[C@H]1C[C@@](C[C@H]2CN(S(=O)(=O)c3cccc(C(F)(F)F)c3)c3cc(-c4cc(F)ccc4F)ccc3O2)(C(=O)O)C1 [Compound 89A, (1s,3R)-3-acetamido-1-(((S)-6-(2,5-difluorophenyl)-4-((3-(trifluoro-methyl)phenyl)sulfonyl)-3,4-dihydro-2H-benzo[b][1,4]oxazin-2-yl)methyl)cyclobutane-1-carboxylic acid] | 500 to 5000 | *** (The symbol “***” indicates a value in the range of greater than 150 to 200) | 500 to 5000 | ** (The symbol “**” indicates a value in the range of greater than 90 to 150)
CC(=O)N[C@H]1C[C@](C[C@H]2CN(S(=O)(=O)c3cccc(C(F)(F)F)c3)c3cc(-c4cc(F)ccc4F)ccc3O2)(C(=O)O)C1 [Compound 89B, (1r,3S)-3-acetamido-1-(((S)-6-(2,5-difluorophenyl)-4-((3-(trifluoro-methyl)phenyl)sulfonyl)-3,4-dihydro-2H-benzo[b][1,4]oxazin-2-yl)methyl)cyclobutane-1-carboxylic acid] | < 500 | ** (The symbol “**” indicates a value in the range of greater than 90 to 150) | 500 to 5000 | ** (The symbol “**” indicates a value in the range of greater than 90 to 150)

From patent publication US10611740B2, “Aryl dihydro-2H-benzo[b][1,4]oxazine sulfonamide and related compounds for use as agonists of RORγ and the treatment of disease” (Lycera Corporation, priority 2015, dated 2020)
